Laboratory results published in publication PMC7898037, “Improving mitochondria and ER stability helps eliminate upper motor neuron degeneration that occurs due to mSOD1 toxicity and TDP‐43 pathology” (Clinical and Translational Medicine, 2021).

Key:
[1] = test system: UMNs of hSOD1^G93A‐UeGFP mice; test: EM quantification of mitochondria and ER in UMNs, hSOD1^G93A‐UeGFP mice; type: in vivo
Experimental: (§1) hSOD1^G93A‐UeGFP, prpTDP‐43^A315T‐UeGFP and WT‐UeGFP mice were weighed and the required NU‐9 dose per weight was calculated (20 or 100 mg/kg), which was administered once daily by oral gavage, starting at postnatal day (P)60 and continuing until P120. Animals from the untreated group received the vehicle (NMP and olive oil) only. For oral administration purposes, 20 ga × 38 mm plastic feeding tubes were used (Instech Laboratories, Inc). The gavage tip was inserted into the mouth directly over the tongue and into the pharynx. While observing the swallowing reflex, the tip was safely and smoothly slid into the esophagus. Once the administration was completed, the gavage tip was pulled straight out.
(§2) Mice were perfused with EM grade 4% PFA. One hemisphere of the brain was sectioned at 50 µm thickness coronally on a vibratome (Leica VT1000S, Leica Inc., Nussloch, Germany). The sections were postfixed in 2% PFA and 0.5% glutaraldehyde for 1 h, they were cryoprotected with glycerol–dimethylsulfoxide (DMSO) mixture followed by freeze–thaw at least four times, and treated with 1% sodium borohydride. They were then treated with 0.3% H2O2–10% methanol in TBS (100 mM Tris–HCl and 150 mM NaCl, pH 7.6) and 5% normal goat serum–1% bovine serum albumin in TBS to block nonspecific binding of primary antibody. This mixture was incubated overnight with rat anti‐Ctip2 antibody (1:500, Thermo Fisher Scientific, Rockford, IL, USA). Biotinylated goat anti‐rat IgG (1:500, Vector Laboratories, Burlingame, CA, USA) was used as the secondary antibody, and diaminobenzidine (DAB) was applied as the chromogen (ABC Elite kit, Vector Laboratories, Burlingame, CA, USA). Sections were then postfixed in buffered 2% osmium tetroxide (OsO4) (Electron Microscopy Sciences, Hatfield, PA, USA), rinsed with distilled water, and stained in 1% uranyl acetate (Electron Microscopy Sciences, Hatfield, PA, USA), again rinsed with distilled water, dehydrated in ascending grades of ethanol with transition fluid propylene oxide (Electron Microscopy Sciences, Hatfield, PA, USA), embedded in the resin mixture with Embed 812 (Electron Microscopy Sciences, Hatfield, PA, USA), and cured in a 60°C oven for 3 days. The sections in which primary motor cortex was present and visible under bright‐field illumination on a dissecting scope were selected. Approximately, 5‐mm‐wide × 7‐mm‐long pieces of the motor cortex from these sections were dissected under the microscope mounted on a resin block and were sectioned on a Leica Ultracut UC6 ultramicrotome (Leica Inc., Nussloch, Germany). The motor cortex was further trimmed, and only layer 5 was kept intact for preparing ultrathin sections. UMNs were identified based on the presence of Ctip2 immunohistochemistry (DAB) in their nuclei (Figure S1). Seventy‐nanometer‐thin sections were collected on 200‐mesh copper–palladium grids. Grids were counterstained with 8% radioactive depleted uranyl acetate and 0.2% lead citrate. Grids were examined on FEI Tecnai Spirit G2 TEM (FEI company, Hillsboro, OR, USA), and digital images were captured on a FEI Eagle camera.
(§3) EM images of Betz cells of normal control and patients, Ctip2‐positive (Ctip2^+) UMN of WT, and hSOD1^G93A‐UeGFP and prpTDP‐43^A315T‐UeGFP mice (Figure S1) were acquired from 70‐nm ultrathin sections of the motor cortex, and EM images were taken on FEI Tecnai Spirit G2 TEM using FEI Eagle camera. Mitochondria were quantified, as described previously. ^34 Mitochondria with intact outer and inner membrane and with intact cristae were considered healthy. Mitochondria with morphological defects, such as broken outer and/or inner membrane and cristae, were counted individually and were reported as percentage of defective mitochondria. ER that are disintegrated and that display profound expansion were considered unhealthy. Length of ER cisternae was measured using line tool of ImageJ software (NIH) upon calibration for pixels/micrometer using set scale function. […]

[2] = test system: UMNs of prpTDP‐43^A315T‐UeGFP mice; test: EM quantification of mitochondria and ER in UMNs, prpTDP‐43^A315T‐UeGFP mice; type: in vivo
Experimental: as §1, §2, §3

[3] = test system: UMN apical dendrites of hSOD1^G93A‐UeGFP mice; test: UMN apical dendrites with vacuoles, hSOD1^G93A‐UeGFP mice; type: in vivo; details: for Mean, Fig. 4G (UMN apical dendrites with vacuoles): hSOD1G93A-UeGFP mice; for percentage of UMNs with vacuolated apical dendrites: hSOD1^G93A‐UeGFP mice
Experimental: as §1
(§4) Mice were deeply anesthetized using ketamine (90 mg/kg) with xylazine (10 mg/kg), and transcardially perfused with 4% PFA in PBS. The brains were removed intact and postfixed (4% PFA, overnight) and stored in PBS with sodium azide (0.01%) at 4°C. Sections were cut in a coronal (50 µm) plane using a vibratome (Leica) and processed for immunocytochemical analyses.
(§5) The antibodies used are as follows: anti‐GFP (1:1000, Invitrogen; or 1:1000, Abcam) and anti‐misfolded SOD1 (B8H10, 1:250, Médimabs). Briefly, sections were treated with blocking solution (PBS, 0.05% BSA, 2% FBS, 1% Triton X‐100, and 0.1% saponin) for 30 min at room temperature and incubated with primary antibody diluted in blocking solution overnight at 4°C. Appropriate secondary fluorescent antibodies (1:500, AlexaFluor‐conjugated, Invitrogen) were added to the blocking solution at room temperature for 2 h in the dark.

[4] = test system: UMN apical dendrites of prpTDP‐43^A315T‐UeGFP mice; test: UMN apical dendrites with vacuoles, prpTDP‐43^A315T‐UeGFP mice; type: in vivo
Experimental: as §1, §4, §5

[5] = set-up: method as in PMID 22189273, PMID 22837812; details: cited from earlier work
hERG channel = details: cited from earlier work
mice = details: cited from earlier work
[6] = hSOD1G93A-UeGFP (NU-9 100 mg/kg/day)
[7] = hSOD1^G93A‐UeGFP mice, 100 mg/kg/day oral gavage P60–P120, at P120
[8] = prpTDP43A315T-UeGFP untreated minus NU-9 100 mg/kg/day, Tukey's multiple comparisons test
[9] = prpTDP-43A315T-UeGFP mice, NU-9 100 mg/kg/day
[10] = prpTDP-43A315T-UeGFP untreated minus NU-9 100 mg/kg/day, Tukey's multiple comparisons test
[11] = prpTDP‐43^A315T‐UeGFP mice, 100 mg/kg/day oral gavage P60–P120

Question: Which “Fig. 2O group mean (total number of mitochondria/UMN)” value [1, 6] does the source give for `C[C@H](Oc1cc(C(F)(F)F)cc(C(F)(F)F)c1)C1CC(=O)CC(=O)C1` [NU‐9] here?
Answer: 21.13

Question: What about the “Fig. 2P group mean (percentage of healthy mitochondria/UMN)” value [1, 6] of the same molecule?
Answer: 86.3

Question: What about the “Fig. 2R group mean (average length of ER cisternae/UMN)” value [1, 6] of the same molecule?
Answer: 1.136

Question: And the “average length of ER cisternae” value [1, 7]?
Answer: 1.13 ± 0.1 µm

Question: What about the “number of healthy ER cisternae” value [1, 7] of the same molecule?
Answer: 14 ± 2 ER cisternae/UMN/section

Question: And the “percentage of healthy mitochondria in UMNs” value [1, 7]?
Answer: 86% ± 3%

Question: What about the “total number of mitochondria in UMNs” value [1, 7] of the same molecule?
Answer: 21 ± 2 mitochondria/UMN/section

Question: And the “Mean Diff., Fig. 6J, TDP-43 vs. TDP-43 -NU9” value [2, 8]?
Answer: -0.8333

Question: And the “Fig. 6G group mean (total number of mitochondria/UMN)” value ([2]; prpTDP-43A315T-UeGFP (NU-9 100 mg/kg/day))?
Answer: 31.85

Question: What about the “Mean, Fig. 6H (EM quantification in UMNs)” value [2, 9] of the same molecule?
Answer: 86.77

Question: What about the “Mean, Fig. 6I (EM quantification in UMNs)” value [2, 9] of the same molecule?
Answer: 31.16

Question: What about the “Mean, Fig. 6J (EM quantification in UMNs)” value [2, 9] of the same molecule?
Answer: 1.37

Question: What about the “Mean Diff., Fig. 6H, TDP-43 vs. TDP-43 -NU9” value [2, 10] of the same molecule?
Answer: -64.89

Question: And the “Mean Diff., Fig. 6I, TDP-43 vs. TDP-43 -NU9” value [2, 10]?
Answer: -18.7

Question: What about the “average number of intact ER cisternae in UMNs” value [2, 11] of the same molecule?
Answer: 36 ± 2 ER cisternae/UMN/section

Question: What about the “average percentage of healthy mitochondria” value [2, 11] of the same molecule?
Answer: 87% ± 1%

Question: And the “total mitochondria per UMN per section” value [2, 11]?
Answer: 32 ± 3 mitochondria/UMN/section

Question: And the “Mean, Fig. 4G (UMN apical dendrites with vacuoles)” value ([3]; NU-9 20 mg/kg/day)?
Answer: 43.86

Question: And the “Mean, Fig. 4G (UMN apical dendrites with vacuoles)” value ([3]; NU-9 100 mg/kg/day)?
Answer: 23.28

Question: What about the “Mean Diff., Fig. 4G, GS Vehicle vs. GS NU-9 (20)” value ([3]; hSOD1G93A-UeGFP vehicle minus NU-9 20 mg/kg/day, Tukey's multiple comparisons test) of the same molecule?
Answer: 32.38

Question: What about the “Mean Diff., Fig. 4G, GS Vehicle vs. GS NU-9 (100)” value ([3]; hSOD1G93A-UeGFP vehicle minus NU-9 100 mg/kg/day, Tukey's multiple comparisons test) of the same molecule?
Answer: 52.96

Question: And the “percentage of UMNs with vacuolated apical dendrites” value ([3]; 20 mg/kg/day oral gavage P60–P120)?
Answer: 44% ± 7%

Question: And the “percentage of UMNs with vacuolated apical dendrites” value ([3]; 100 mg/kg/day oral gavage P60–P120)?
Answer: 23% ± 10%

Question: What about the “Mean Diff., Fig. 7E, GT Untreated vs. GT NU-9 (100)” value [4, 8] of the same molecule?
Answer: 70.28

Question: And the “Mean, Fig. 7E (UMN apical dendrites with vacuoles)” value [4, 9]?
Answer: 10.93

Question: What about the “percentage of UMNs with vacuolated primary apical dendrites” value [4, 11] of the same molecule?
Answer: 11% ± 1%

Question: And the Plasma protein binding [5]?
Answer: 90%

Question: What about the “inhibition of the hERG channel” value (hERG channel) of the same molecule?
Answer: little inhibition

Question: And the hERG antagonism (hERG channel; up to 30 µM)?
Answer: No inhibition up to 30 µM

Question: What about the MTD (mice; ip) of the same molecule?
Answer: 1280 mg/kg

Question: And the NOAEL (mice; po, 7‐day repeat toxicology study)?
Answer: 100 mg/kg
